The results in this text go back to paper PMC4595804, “A strategy to discover decoy chemokine ligands with an anti-inflammatory activity” (Scientific Reports, 2015).

The structures appear in SMILES notation.

Experiment [1] concerns Balb/c mice sensitized and challenged with OVA. The experiment is described as follows: Mouse model of allergic eosinophilic airway inflammation (OVA), BAL cell counts. It is filed as in vivo. As to conditions: vs vehicle-treated OVA mice; for overall number of inflammatory cells in BALF: 350 μmol/kg I.P. 2 h before each challenge; for CD4+ T cells in BALF / CD11c+F4/80− dendritic cells in BALF / T cells in BALF / neutrophil counts in BALF / number of CD11c+F4/80+ macrophages in BALF / recruited eosinophils in BALF: 350 μmol/kg I.P. How it is done:
The differential number of cells recovered in BAL fluid 24 h after the last challenge was counted by flow cytometry. Live leukocytes were identified as CD45^+DAPI^− cells then differentiated into T cells (CD11b^lowCD19^−CD3^+), CD4^+T cells (CD11b^lowCD19^−CD3^+CD4^+), eosinophils (CD11b^+CD11c^−GR1^−), neutrophils (CD11b^+CD11c^−GR1^+), macrophages (CD11b^+GR1^−CD11c^+F4/80^+), dendritic cells (CD11b^+GR1^−CD11c^+F4/80^−).
Nine week-old male Balb/c mice (Janvier) were sensitized on days 1 and 7 by intraperitoneal injection of ovalbumin (OVA, 50μg, grade V, Sigma-Aldrich) adsorbed on aluminium hydroxide (2 mg, Sigma-Aldrich) in PBS. Mice were challenged intranasally with OVA (10 μg) in 25μl of saline on days 18–21. Control mice received intranasal administrations of saline alone. […] Animal experimentation was approved by the local ethics committee (Comité Régional d’Ethique en Matière d’Expérimentation Animale de Strasbourg CREMEAS) and carried out in accordance with the approved guidelines. Collection of the bronchoalveolar lavage fluid (BALF) was performed 24 h after the last OVA challenge as described previously. Cell counts were assessed by flow cytometry (LSRII® cytometer, BD bioscience). BAL cells were added with FCblock (5 μl, 553142, BD bioscience) in a black microplate, incubated for 20 min at room temperature. Then, marker antibodies were added: CD11c-FITC (557400, BD bioscience), Gr-1-Pe-eFluor610 (61-5931-82, eBioscience), CD11b-APC-Cy7 (557657, BD bioscience), CD45-AlexaFluor700 (103128, BioLegend), CD3-BV605 (564009, BD bioscience), CD4-PerCP-Cy5.5 (45-0042-82, eBioscience), F4/80-PE (12-4801-82, eBioscience). Antibodies were incubated for 30 min before DAPI (5 μl, BD bioscience) addition, and flow cytometry was performed immediately.

The next experiment concerns the target T1, CXCL10 (Homo sapiens, UniProt P02778).
T1 construct: (His)6; made in house; host or cells: E. coli BL21 (DE3)
Put plainly: Selectivity, neutraligand protocol, EGFP-CXCR3+ HEK cells. In kind it is cell-based. As to conditions: 10 μM compound, 5 nM CXCL10, EGFP-CXCR3+ HEK cells. The method, then: (§1) Figure 6 (a) Selectivity of CCL17 and CCL22 neutraligands towards 10 chemokines according to the “neutraligand protocol”. […] Each column represents the mean (block) ± SD (bars) of n = 3 experiments performed in triplicate. *p < 0.05; **p < 0.01; ***p < 0.005 as compared to chemokine + DMSO. (b) Chemokine neutraligands inhibited CCR4 endocytosis induced by CCL22 or CCL17. EGFP-CCR4^+ HEK cells were incubated for 30 min with DMSO or chemokine (100 nM CCL22 or CCL17) in the presence or absence of test compounds. […] Cell surface EGFP-tagged CCR4 receptors were measured by EGFP antibody labeling and flow cytometry analysis. CCR4 internalization was expressed as a percentage of total receptor surface expression calculated using control cells incubated with DMSO (100%). Each column represents the mean (block) ± SD (bars) of n = 3 experiments performed in triplicate. *p < 0.05; **p < 0.01; ***p < 0.005 as compared to chemokine alone. (c,d) Inhibition of CCL17 and CCL22- induced CCR4^+HUT78 T cell chemotaxis by neutraligands. […] The number of migrating cells induced by a chemokine alone was set at 100% migration. The number of migrating cells in the presence of chemokine and compounds were expressed as the corresponding percentages. Results were analyzed by fitting the experimental curves (% of migrating cells vs log compound concentration) using the Kaleidagraph software program, and the corresponding IC50 values were calculated. Means and SD values of triplicates were plotted.
(§2) Human cDNAs encoding CCR4 and CXCR3 receptors were cloned in pIRES plasmid (Clontech) while cDNAs encoding CCR2, CCR5, CXCR2 and CXCR4 receptors were cloned in pCEP4 vector (Life technologies). […] Stably EGFP-CCR4^+ HEK cells were selected for 5 weeks with geneticin (G-418, 600μg/ml), and resulting cell clones were checked by fluorescence microscopy and FACS analysis. […]
(§3) Dye loaded cells were placed in the FlexStation 3 (Molecular Devices). Calcium mobilization was measured at 401 and 475 nm emission fluorescence after excitation at 355 nm. […] Raw fluorescence data (at 401 and 475 nm) were exported and the ratio 401/475 was calculated. The calcium response values (height of peak response over baseline) were determined. […] The Z’ factor[29] was calculated according to the following equation: Z’ = 1-(3SD+ + 3SD−)/|Ave+ − Ave−|, where SD+ and Ave+ are respectively the standard deviation and the mean value of the positive controls (chemokine + DMSO), while SD− and Ave− are respectively the standard deviation and the mean value of the negative controls (HEPES-BSA (0.1%) mixed with DMSO, or cells mixed with C-021). Hit molecules were confirmed by performing concentration-response curves and their half maximal inhibitory concentration (IC50) values were calculated using the Kaleidagraph software.

The target in a further experiment is T2, CXCL11 (Homo sapiens, UniProt O14625).
T2 construct: thioredoxin-hexahistidin (TRX-(His)6) with enterokinase site; made in house; host or cells: E. coli BL21 (DE3)
The experiment is described as above. It is filed as cell-based. Particulars: 10 μM compound, 5 nM CXCL11, EGFP-CXCR3+ HEK cells. How it is done:
as §1, §2, §3

T1 sequence (P02778 22-98): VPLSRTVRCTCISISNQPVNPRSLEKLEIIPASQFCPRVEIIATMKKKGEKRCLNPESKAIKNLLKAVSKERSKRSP
T2 sequence (O14625 22-94): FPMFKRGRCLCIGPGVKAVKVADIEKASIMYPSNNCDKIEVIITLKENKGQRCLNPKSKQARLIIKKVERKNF

Take `CC(C)=CCn1cnc2c1c(=O)n(C)c(=O)n2C` [GPN279, 1,3-dimethyl-7-(3-methylbut-2-enyl)-1H-purine-2,6(3H, 7H)-dione]: in experiment [1], the “overall number of inflammatory cells in BALF” value was “significantly reduced”, the “CD4+ T cells in BALF” value was “significantly reduced”, the “CD11c+F4/80− dendritic cells in BALF” value is recorded as “significantly reduced” and the “T cells in BALF” value was “significantly reduced”. Moreover, in experiment [1], the “neutrophil counts in BALF” value is recorded as “significantly inhibited”, the “number of CD11c+F4/80+ macrophages in BALF” value was “not modified” and the “recruited eosinophils in BALF” value is listed as “significantly reduced”. The “effect on calcium responses induced by CXCL10” value at CXCL10 is “no effect”. Further, the “effect on calcium responses induced by CXCL11” value at CXCL11 is on record as “no effect”.

`O=C(OCC(O)CO)c1ccccc1O` (stereo not drawn) [GPN136, 2,3-dihydroxypropyl 2-hydroxybenzoate]: in experiment [1], the “overall number of inflammatory cells in BALF” value is “significantly reduced”, the “CD4+ T cells in BALF” value is on record as “significantly reduced”, the “CD11c+F4/80− dendritic cells in BALF” value is “significantly reduced” and the “T cells in BALF” value is “significantly reduced”. In addition, in experiment [1], the “neutrophil counts in BALF” value is recorded as “did not”, the “number of CD11c+F4/80+ macrophages in BALF” value was “not modified” and the “recruited eosinophils in BALF” value is “significantly reduced”. At CXCL10, the “effect on calcium responses induced by CXCL10” value is listed as “no effect”. Also, the “effect on calcium responses induced by CXCL11” value on CXCL11 was “no effect”.
